Results reported in patent US4349544A, “Method for increasing the milk let down in mammals” (Ceskoslovenska akademie ved, priority 1976, dated 1982).
Where “and” joins values, the source holds several entries; their conditions need not be identical. Identical values can stand only once.

Key:
[1] = test system: uterine horn; assay: In situ uterine horn contractions in estrogenized anesthetized female rats; type: in vivo, rat; settings: for A = amplitude of contractions as a % of maximal contraction induced by a tetanic dose of 10 mcg/kg oxytocin: equipotent i.v. doses (10 mcg/kg dCOMOT, Me-OT; 1 mcg/kg dOT, OT), n=5; for A = amplitude of contractions as a % of maximal contraction induced by a tetanic dose of 10 mcg/kg oxytocin / C = duration of the response: mean, SEM on next line; for D = the presence of tetany in % of the animal group (single maximal contraction lasting more than 10 min.) / B = contraction frequency per 10 min. in % / C = duration of the response: equipotent i.v. doses (10 or 1 mcg/kg); for B = contraction frequency per 10 min. in %: mean ± SEM
Description: 250-300 g body wt female rats (n=5 for each substance) were pre-treated for 3 days with 50 mcg di-ethylstilbestrol and 25 mg progesterone injected once daily i.m. in order to fully "estrogenize" the animals and have them all in the same functional state of myometrial reactivity. They were then anesthetized with urethane and prepared for in situ measurements of uterine horn contractions using Grass force-displacement treansducers and polygraph recording.

[2] = test system: myometrium; settings: relative to oxytocin; cited from earlier work
[3] = test system: healthy lactating sows; assay: Milk-let-down effect in healthy lactating sows; type: in vivo, sow
Description: The milk-let-down effect of 1-desamino-1-monocarba-([…](OMe))-oxytocin (hereinafter noted as dCOMOT) was tested in healthy lactating sows. The milk-let-down effect of 0.6 mg of dCOMOT injected intravenously lasted for from 4 to 9 hours.

[4] = test system: sows affected with hypogalactia or agalactia; type: in vivo, sow; settings: for Litter size (Mean ± s.d.) 7 days after treatment / Litter size (Mean ± s.d.) at day of treatment: dCOMOT 0.6 mg i.v. or i.m., oxytocin 30-50 I.U.; for sows failing to eject milk on the day after treatment: day after 1st treatment; for Mean piglet weight per litter at day of treatment / Litter size (Mean ± s.d.) at day of treatment: day of treatment (baseline); for side effects after treatment: in vivo
[5] = test system: uterus of gilts; type: in vivo, gilt; settings: i.v., OT 1 to 5 IU, dCOMOT 0.2 to 1.0 mg
Description: Four gilts were used. The experiments stated about 24 hours after onset of their second or third estrus. Their cycle duration was in the range 19-22 days. They were anesthetized by i.v. administration of about 15 mg/kg Na thionembutal (in 5% (w/v) solution)--additional doses were required during the experiment. The uterus was exposed through a midline abdominal incision. A recording balloon-tipped catheter was inserted into each uterine horn through a small incision about 10 cm from the uterine body (Clay-Adams catheters, PE 90-0.86 mm i.d.×1.27 mm o.d., with a micro-balloon sealed over the tip with a double tie of 0000 silk suture). The recording system was filled with saline and each catheter was affixed to the uterine wall with 000 silk suture to prevent motion of the balloon in the lumen. The catheters exited through the mid-abdominal incision and were connected to P-23AC pressure transducers, thence to 7PL DC preamplifiers. When we were satisfied that the recording system was functioning the abdominal incision was closed about the catheters. […] Unfortunately there was not enough material for a full scale dose-response investigation.

[6] = sow, as in all other mammals; cited from earlier work
[7] = test system: isolated rat uterus; assay: Biological activity A: isolated rat uterus; type: cell-based
From the text: | A = isolated rat uterus,

[8] = test system: in situ rat uterus; assay: Biological activity B: in situ rat uterus; settings: in vivo
From the text: | B = in situ rat uterus,

[9] = test system: isolated rat mammary gland; assay: Biological activity D: isolated rat mammary gland; type: cell-based
From the text: | D = isolated rat mammary gland,

[10] = test system: lactational activity; assay: Biological activity E: lactational activity in vivo
From the text: | E = lactational activity in vivo

[11] = test system: antidiuretic in the rat; assay: Biological activity F: antidiuretic in the rat; settings: in vivo
From the text: | F = antidiuretic in the rat.

[12] = Partition coefficient between 2-butanol and 0.05% acetic acid; type: physicochemical; settings: 2-butanol / 0.05% acetic acid
From the text: K = partition coefficient between 2butanol and 0.05% acetic

[13] = test system: pregnant cows; assay: Induction of labor in pregnant Czech red-spotted cows; type: in vivo, cow; settings: for Duration of Labor: individual animals
Description: These experiments were carried out on 13 pregnant `Czech red-spotted` cows ranging from para I to para V. Average pregnancy in this breed is 290 days in duration.
Nine of the animals were 278-290 days after insemination but actual active labor had not yet begun. These animals received no other medication (Table 7).
Four of the animals were estimated to be near to term (cf. Table 4). 48 hours before the actual experiment they received 20 mg dexamethasone i.m. in an attempt to prepare the uterine cervix for active labor. In this group, in addition to close clinical follow-up, measurements were also made of: body temp., hemoglobin (Hb), glucose, total protein, inorganic P, Ca and Mg concentrations in the blood, both in the cow during the experiment and in the calf after birth, all by standard methods.
The standard i.v. (jugular) injection dosage of dCOMOT was 5 mg. In those cases in which labor lasted longer than 6 hours (cf. Results) in second injection was given.
The first group of 9 cows was managed under field conditions--in the barns of local farms. The four animals under more intensive study were kept in stalls set aside in a research building for one week prior to the onset of the experiment and for 3 weeks following delivery for further postnatal observations.

Row | Compound | A = amplitude of contractions as a % of maximal contraction induced by a tetanic dose of 10 mcg/kg oxytocin [1] [%] | D = the presence of tetany in % of the animal group (single maximal contraction lasting more than 10 min.) [1] | B = contraction frequency per 10 min. in % [1] [%] | C = duration of the response [1] [min] | Mean piglet weight per litter 7 days after treatment [4] [kg] | Litter size (Mean ± s.d.) 7 days after treatment [4] | sows failing to eject milk on the day after treatment [4] | Mean piglet weight per litter at day of treatment [4] [kg] | Litter size (Mean ± s.d.) at day of treatment [4] | side effects after treatment [4] | also measured
1 | [2-Tyr(OMe)]-OT [Me--OT] | 68 | none | 42 ± 5.4 | 20.6 | – | – | – | – | – | – | contractile activity on the myometrium in comparison with the natural hormone [2]: one tenth; vasoconstrictor activity in the myometrium in comparison with the natural hormone [2]: one hundredth
2 | 1-deamino-OT [d OT] | 92 | 60% | 65 ± 6.2 | 46 | – | – | – | – | – | – | –
3 | CC[C@H](C)[C@@H]1NC(=O)[C@H](Cc2ccc(O)cc2)NC(=O)[C@@H](N)CSSC[C@@H](C(=O)N2CCC[C@H]2C(=O)N[C@@H](CC(C)C)C(=O)NCC(N)=O)NC(=O)[C@H](CC(N)=O)NC(=O)[C@H](CCC(N)=O)NC1=O [oxytocin, reference compound] | 90 | 60% | 43 ± 3.2 | 10.4 | 2.28 ± 0.44 | 9.10 ± 2.10 | Four out of 17 | 1.40 ± 0.22 | 10.00 ± 1.95 | No side effects were observed | duration of rapid increase of the intramammary pressure ([3]; 5-10 I.U. intravenous, healthy lactating sows): 5 to 10 min; contraction rate after injection (baseline 6/10 min) [5]: 8/10; response duration ([5]; anesthetized gilts): approximately 10 min; biochemical half-life of injected hormone [6]: only a few minutes
4 | 1-desamino-1-monocarba-(2-Tyr(OMe))-oxytocin [Ic] | 65 | none | 60 ± 5.3 | 185 | 2.64 ± 0.62 | 8.92 ± 1.85 | None | 1.44 ± 0.37 | 10.16 ± 1.65 | No side effects were observed | Biological activities A = isolated rat uterus [7]: 10 IU/mg; Biological activities B = in situ rat uterus [8]: 40 IU/mg; Biological activities D = isolated rat mammary gland [9]: 67 IU/mg; Biological activities E = lactational activity in vivo [10]: 35 IU/mg; Biological activities F = antidiuretic in the rat [11]: 0.9 IU/mg; K = partition coefficient [12]: 3.15; duration of secondary oscillation in intramammary pressure ([3]; 0.6 mg intravenously, healthy lactating sows): at least 4 hours; milk-let-down response after intramuscular injection ([3]; intramuscular injection, compared with i.v.): approximately the same response; piglet weight gain during the observation period versus oxytocin group ([4]; 7 day observation period): gained more weight; health of calves ([13]; Group I): All the calves were healthy; Mean duration of labor from the dCOMOT injection ([13]; Group I, 9 non-pretreated cows, mean ± SEM): 14.25 ± 5.1 h; uterine tetany during induced labor ([13]; Group I, non-pretreated cows): no evidence of uterine tetany whatsoever; response following injection ([13]; Group I, non-pretreated cows, all cases): onset of regular uterinne contractions and increased tension in the udder; Duration of Labor ([13]; Group I, non-pretreated cows, dCOMOT i.v.): 26 h and 34 h and 22.5 h and 6 h and 24.5 h and 10 h and 1.5 h and 7 h and 15 h; health of calves ([13]; Group II): all calves were healthy; mean duration of labor ([13]; Group II, 4 dexamethasone pretreated cows): 4.3 ± 2.1 h; Duration of Labor ([13]; Group II, cows pretreated with 20 mg dexamethasone i.m. 48 hours before, listed as dCOMOT): 0.7 h and 8.2 h and 8.8 h and 8.6 h; uterine tetany during induced labor ([13]; Group II, dexamethasone pretreated cows): In no cases was uterine tetany observed; start of active labor after injection ([13]; Group II, dexamethasone pretreated cows, all cases): within minutes; Progeny Serum ([13]; Group II, dexamethasone pretreated cows, individual calves): 7.4
